Here are results for 34 compounds from patent publication US20240199611A1, “ANTIBACTERIAL COMPOUNDS” (JANSSEN SCIENCES IRELAND UNLIMITED COMPANY, priority 2021, published 2024).

SMILES strings stand for the structures. Read-outs that look alike come from different tables or passages of the source.

Series [1] concerns Mycobacterium tuberculosis strain EH4.0 expressing green-fluorescent protein (GFP). The experiment in a line: microbe, parasite or virus in culture. It is filed as cell-based. To be noted: read-out: pIC50 (converted).
Series [2] is classed as physicochemical. The settings on record: 30 μM; for chemical stability (% by LCMS), DMSO: 0 h; for chemical stability (% by LCMS), ACN/H2O / chemical stability (% by LCMS), ACN/0.1N HCl: 48 h; for chemical stability (% by LCMS), ACN/0.1N HCl: pH 1.6. Here is the method: Chemical Stability Testing
Preliminary Protocol • Add 3 μl of a 10 mM DMSO stock solution to 1 ml of the following solvents in a 1.5 ml HPLC vial. • DMSO (reference solution) • H2O/Acetonitril 1/1 (assay solution) • 0.1N HCl/Acetonitril 1/1 (assay solution) • Mix well, […] LCMS • Compare the chromatograms of the two assay solutions with the reference solution and report the additional peaks as degradation peaks

A word on the melting point: it is the temperature, or range, at which the solid turns liquid. `CCc1nc2ccc(OC)cn2c1C(=O)NCc1ccc(N2CCN(S(=O)(=O)C(F)(F)F)C(OC)=N2)cc1` [Compound 36] returned a melting point of 142.03 °C. Besides, the IC50 in series [1] (Test 1 (and/or Test 2)) is 3.98 nM. Consider `Cc1ccc2nc(C(F)(F)F)c(C(=O)NCc3ccc(N4CCN(S(=O)(=O)C(F)(F)F)C=N4)c(F)c3)n2c1` [Compound 175], for which the IC50 in series [1] (Test 1 (and/or Test 2)) was 1.58 nM. For `CCc1nc2ccc(Cl)cn2c1C(=O)NCc1ccc(N2CCN(c3nccs3)C(OC)=N2)cc1` [Compound 54], the melting point was 233.23 °C. In series [1] (Test 1 (and/or Test 2)), the IC50 is 11 nM.

Regarding `CCc1nc2c(F)cc(Cl)cn2c1C(=O)NCc1ccc(N2CCN(S(=O)(=O)C(F)(F)F)C(C(C)C)=N2)c(F)c1` [Compound 238], in series [2], the “chemical stability (% by LCMS), DMSO” value is 100%; the “chemical stability (% by LCMS), ACN/H2O” value was 100%; the “chemical stability (% by LCMS), ACN/0.1N HCl” value amounted to 100%. For the same compound, in series [1] (Test 1 (and/or Test 2)), the IC50 was 1.58 nM.

Consider `CCc1nc2ccc(C)cn2c1C(=O)NCc1ccc(N2CCN(S(=O)(=O)C(F)(F)F)C(C(=O)N(C)C)=N2)cc1` [Compound 259], for which, in series [2], the “chemical stability (% by LCMS), DMSO” value was determined as 98%; the “chemical stability (% by LCMS), ACN/H2O” value is 100%; the “chemical stability (% by LCMS), ACN/0.1N HCl” value is 100%. In addition, the IC50 in series [1] is 10.7 nM. `CCC1=NN(c2ncc(CNC(=O)c3c(CC)nc4ncc(C)cn34)cc2F)CCN1S(=O)(=O)C(F)(F)F` [Compound 235]: in series [2], the “chemical stability (% by LCMS), DMSO” value was 99%; the “chemical stability (% by LCMS), ACN/H2O” value was found to be 99%; the “chemical stability (% by LCMS), ACN/0.1N HCl” value worked out at 98%. The IC50 in series [1] (Test 1 (and/or Test 2)) is 6.31 nM. As for `CC1=NN(c2ccc(CNC(=O)c3c(C(F)(F)F)nc4ncccn34)cc2F)CCN1S(=O)(=O)C(F)(F)F` [Compound 254], the IC50 in series [1] (Test 1 (and/or Test 2)) is 53.7 nM. Same read-out and setting: with `CCc1nc2c(F)cc(Cl)cn2c1C(=O)NCc1ccc(N2CCN(S(=O)(=O)C(F)(F)F)C(C(C)C)=N2)cc1` [Compound 244] the figure was 4.57 nM. In the case of `O=C(NCc1ccc(N2CCN(S(=O)(=O)C(F)(F)F)C=N2)c(F)c1)c1c(C(F)F)nc2n1CCCC2` [Compound 147], the IC50 in series [1] (Test 1 (and/or Test 2)) was 3.8 nM. With `CC(C)C1=NN(c2ccc(CNC(=O)c3c(C(F)(F)F)nc4ccccn34)cc2F)CCN1S(=O)(=O)C(F)(F)F` [Compound 247], in series [2], the “chemical stability (% by LCMS), DMSO” value amounted to 96%; the “chemical stability (% by LCMS), ACN/H2O” value is recorded as 100%; the “chemical stability (% by LCMS), ACN/0.1N HCl” value was found to be 100%. Besides, the IC50 in series [1] (Test 1 (and/or Test 2)) was 1.38 nM. Turning to `Cc1cn2c(C(=O)NCc3ccc(N4CCN(S(=O)(=O)C(F)(F)F)C=N4)c(F)c3)c(C)nc2s1` [Compound 153], the IC50 in series [1] (Test 1 (and/or Test 2)) was 1.78 nM. In the case of `CCC1=NN(c2ccc(CNC(=O)c3c(CC)nc4ncc(C)cn34)cc2F)CCN1S(=O)(=O)C(F)(F)F` [Compound 234], in series [2], the “chemical stability (% by LCMS), DMSO” value is 96%; the “chemical stability (% by LCMS), ACN/H2O” value was determined as 95%; the “chemical stability (% by LCMS), ACN/0.1N HCl” value is recorded as 97%. The IC50 in series [1] (Test 1 (and/or Test 2)) was 0.324 nM. In the case of `O=C(NCc1ccc(N2CCN(S(=O)(=O)C(F)(F)F)C=N2)c(F)c1)c1c(C(F)(F)F)nc2ccc(Cl)cn12` [Compound 124], the IC50 in series [1] (Test 1 (and/or Test 2)) was 10 nM. The compound `CCc1nc2ccc(COC)cn2c1C(=O)NCc1ccc(N2CCN(S(=O)(=O)C(F)(F)F)C=N2)cc1` [Compound 43] yielded a melting point of 169.05 °C. Moreover, in series [1] (Test 1 (and/or Test 2)), the IC50 was 10 nM.

As to `CC(C)C1=NN(c2ccc(CNC(=O)c3c(C(F)(F)F)nc4n3CCCC4)cc2F)CCN1S(=O)(=O)C(F)(F)F` [Compound 239], the IC50 in series [1] (Test 1 (and/or Test 2)) is 8.91 nM. On the same count and under the same terms, with `CCc1nc2ccc(Cl)cn2c1C(=O)NCc1ccc(N2CCN(S(=O)(=O)C(F)(F)F)C(C3CC3)=N2)cc1` [Compound 230] the figure was 6.61 nM; with `CCc1nc2ccc(C)cn2c1C(=O)NCc1cnc(N2CCN(S(=O)(=O)C(F)(F)F)C(C3CC3)=N2)c(F)c1` [Compound 232], 1.51 nM.

As to `CCc1nc2cc(C)c(C)cn2c1C(=O)NCc1ccc(N2CCN(S(=O)(=O)C(F)(F)F)C(C(C)C)=N2)cc1` [Compound 245], the IC50 in series [1] (Test 1 (and/or Test 2)) was 13.8 nM. For `CC1=NN(c2ncc(CNC(=O)c3c(C(F)(F)F)nc4ccccn34)cc2F)CCN1S(=O)(=O)C(F)(F)F` [Compound 256], the IC50 in series [1] (Test 1 (and/or Test 2)) is 18.6 nM.

`CCc1nc2ncc(C)cn2c1C(=O)NCc1ccc(N2CCN(S(=O)(=O)C(F)(F)F)C(C3CC3)=N2)cc1` [Compound 228]: the IC50 in series [1] (Test 1 (and/or Test 2)) was 1.45 nM. Turning to `CCc1nc2c(F)cc(Cl)cn2c1C(=O)NCc1ccc(N2CCN(S(=O)(=O)C(F)(F)F)C(C3CC3)=N2)c(F)c1` [Compound 231], in series [2], the “chemical stability (% by LCMS), DMSO” value worked out at 98%; the “chemical stability (% by LCMS), ACN/H2O” value worked out at 98%; the “chemical stability (% by LCMS), ACN/0.1N HCl” value stood at 98%. Further, the IC50 in series [1] (Test 1 (and/or Test 2)) is 0.891 nM. For the compound `CCc1nc2nc3c(cn2c1C(=O)NCc1ccc(N2CCN(S(=O)(=O)C(F)(F)F)C=N2)c(F)c1)CCC3` [Compound 154], in series [1] (Test 1 (and/or Test 2)), the IC50 was 1.7 nM.

For the compound `CCc1nc2ccc(C)cn2c1C(=O)NCc1ccc(N2CCN(S(=O)(=O)C(F)(F)F)C(C(N)=O)=N2)cc1` [Compound 260], in series [2], the “chemical stability (% by LCMS), DMSO” value is listed as 98%; the “chemical stability (% by LCMS), ACN/H2O” value came out at 100%; the “chemical stability (% by LCMS), ACN/0.1N HCl” value was determined as 100%. In addition, the IC50 in series [1] (Test 1 (and/or Test 2)) was 32.4 nM. Regarding `CCc1nc2ccc(C)cn2c1C(=O)NCc1cnc(N2CCN(S(=O)(=O)C(F)(F)F)C(C(C)C)=N2)c(F)c1` [Compound 246], the IC50 in series [1] (Test 1 (and/or Test 2)) is 2.63 nM. The compound `CCc1nc2ccc(Cl)cn2c1C(=O)NCc1ccc(N2CCN(S(=O)(=O)C(F)(F)F)C=N2)c(OC)c1` [Compound 25] came in with a melting point of 125.56 °C. The IC50 in series [1] (Test 1 (and/or Test 2)) was 10 nM.

Turning to `CCc1nc2ncc(Cl)cn2c1C(=O)NCc1cc(F)c(N2CCN(S(=O)(=O)C(F)(F)F)C=N2)c(F)c1` [Compound 47], the melting point is 149.44 °C. For the same compound, in series [1] (Test 1 (and/or Test 2)), the IC50 was 3.16 nM. As for `CCc1nc2n(c1C(=O)NCc1ccc(N3CCN(S(=O)(=O)C(F)(F)F)C(C(C)C)=N3)c(F)c1)CCCC2` [Compound 242], in series [1] (Test 1 (and/or Test 2)), the IC50 is 2.4 nM. Same read-out and setting: with `CCc1nc2ccc(C)cn2c1C(=O)NCc1ccc(N2CCN(S(=O)(=O)C(F)(F)F)C(C3CC3)=N2)cc1` [Compound 229] the figure was 1.07 nM; with `Cc1cnc2nc(C(F)F)c(C(=O)NCc3ccc(N4CCN(S(=O)(=O)C(F)(F)F)C(C(C)C)=N4)c(F)c3)n2c1` [Compound 249], 1.86 nM. `COC1=NN(c2ccc(CNC(=O)c3nnc4ccc(Br)cn34)cc2F)CCN1S(=O)(=O)C(F)(F)F` [Compound 94]: the IC50 in series [1] was 38.9 nM. For the compound `CCC1=NN(c2ncc(CNC(=O)c3c(C(F)(F)F)nc4ccccn34)cc2F)CCN1S(=O)(=O)C(F)(F)F` [Compound 236], the IC50 in series [1] (Test 1 (and/or Test 2)) was 6.17 nM. `COCc1nc2ccc(Cl)cn2c1C(=O)NCc1ccc(N2CCN(S(=O)(=O)C(F)(F)F)C=N2)cc1` [Compound 8] returned a melting point of 167.12 °C. Further, in series [1], the IC50 was 251 nM.

Consider `CCc1nc2ncc(C)cn2c1C(=O)NCc1ccc(N2CCN(S(=O)(=O)C(F)(F)F)C(C)=N2)cc1` [Compound 250], for which the IC50 in series [1] (Test 1 (and/or Test 2)) was 1.58 nM. Regarding `COC1=NN(c2ccc(CNC(=O)c3nnc4ccc(Cl)cn34)cc2F)CCN1S(=O)(=O)C(F)(F)F` [Compound 92], the IC50 in series [1] is 53.7 nM.
